Data as given in patent US20250034110A1, “LPAR1 ANTAGONISTS AND USES THEREOF” (Pipeline Therapeutics, Inc., priority 2021, published 2025).

Target: human LPAR1 (Homo sapiens, UniProt Q92633)
Assay: In vitro functional assay of lysophosphatidic acid receptor 1 activity (calcium flux)
Type: cell-based
Settings: B103 cells stably expressing human LPAR1; calcium flux (Fluo-4 NW) after lysophosphatidic acid (18:1) at EC80; 100 pM to 10 μM; read-out: LPAR1 IC50

Chain of human LPAR1 (Q92633 whole entry): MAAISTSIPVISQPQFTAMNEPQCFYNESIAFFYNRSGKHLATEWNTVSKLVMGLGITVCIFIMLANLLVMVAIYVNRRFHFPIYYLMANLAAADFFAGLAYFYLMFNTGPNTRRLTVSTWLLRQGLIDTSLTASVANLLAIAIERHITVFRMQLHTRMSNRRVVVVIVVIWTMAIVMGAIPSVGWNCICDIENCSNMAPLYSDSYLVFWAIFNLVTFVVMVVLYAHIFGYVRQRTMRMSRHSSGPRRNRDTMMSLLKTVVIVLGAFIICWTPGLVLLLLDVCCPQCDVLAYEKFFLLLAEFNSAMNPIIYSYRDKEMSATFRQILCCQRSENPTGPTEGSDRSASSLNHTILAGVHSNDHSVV

SMILES | IC50
COc1ccc(NC(=O)N(c2ccccc2C(C)C)[C@@H]2C[C@@H]3CC[C@H]2N3C(C)=O)c(OC(F)F)n1 (racemic) [Example 59, rac-1-((1R,2R,4S)-7-acetyl-7-azabicyclo[2.2.1]heptan-2-yl)-3-(2-(difluoromethoxy)-6-methoxypyridin-3-yl)-1-(2-isopropylphenyl)urea] | 100 to 1000 nM
COc1ccc(NC(=O)N(c2ccccc2C(C)C)[C@H]2C[C@@H]3CC[C@H]2N3C(C)=O)c(OC(F)F)n1 (racemic) [Example 60, rac-1-((1R,2S,4S)-7-acetyl-7-azabicyclo[2.2.1]heptan-2-yl)-3-(2-(difluoromethoxy)-6-methoxypyridin-3-yl)-1-(2-isopropylphenyl)urea] | > 1000 nM
Cc1ccc(NC(=O)N(C[C@@H]2C[C@H]2C(=O)O)c2ccccc2C(C)C)c(OC(F)F)n1 (racemic) [Example 228] | 100 to 1000 nM
Cc1ccc(NC(=O)N(c2ccccc2C(C)C)C2CN(C(=O)OC(C)(C)C)C2)c(OC(F)F)n1 [Example 2, tert-butyl 3-(3-(2-(difluoromethoxy)-6-methylpyridin-3-yl)-1-(2-isopropylphenyl)ureido)azetidine-1-carboxylate] | 100 to 1000 nM
Cc1ccc(NC(=O)N(c2ccccc2C(C)C)C2(C)COC2)c(OC(F)F)n1 [Example 3, 3-(2-(difluoromethoxy)-6-methylpyridin-3-yl)-1-(2-isopropylphenyl)-1-(3-methyloxetan-3-yl)urea] | 100 to 1000 nM
Cc1ccc(NC(=O)N(c2ccccc2C(C)C)C2CCC(=O)N(C)C2)c(OC(F)F)n1 (stereo not shown) [Example 4, 3-(2-(difluoromethoxy)-6-methylpyridin-3-yl)-1-(2-isopropylphenyl)-1-(1-methyl-6-oxopiperidin-3-yl)urea] | 10 to 100 nM
Cc1ccc(NC(=O)N(c2ccccc2C(C)C)[C@@H]2CCC(=O)N(C)C2)c(OC(F)F)n1 [Example 5, (R)-3-(2-(difluoromethoxy)-6-methylpyridin-3-yl)-1-(2-isopropylphenyl)-1-(1-methyl-6-oxopiperidin-3-yl)urea] | 10 to 100 nM
Cc1ccc(NC(=O)N(c2ccccc2C(C)C)[C@H]2CCC(=O)N(C)C2)c(OC(F)F)n1 [Example 6, (S)-3-(2-(difluoromethoxy)-6-methylpyridin-3-yl)-1-(2-isopropylphenyl)-1-(1-methyl-6-oxopiperidin-3-yl)urea] | 10 to 100 nM
Cc1ccc(NC(=O)N(c2ccccc2C(C)C)C2CC(=O)N(C)C2)c(OC(F)F)n1 (stereo not shown) [Example 7, 3-(2-(difluoromethoxy)-6-methylpyridin-3-yl)-1-(2-isopropylphenyl)-1-(1-methyl-5-oxopyrrolidin-3-yl)urea] | 100 to 1000 nM
Cc1ccc(NC(=O)N(c2ccccc2C(C)C)[C@H]2CCN(C(=O)OC(C)(C)C)C2)c(OC(F)F)n1 [Example 8, tert-butyl (S)-3-(3-(2-(difluoromethoxy)-6-methylpyridin-3-yl)-1-(2-isopropylphenyl)ureido)pyrrolidine-1-carboxylate] | 100 to 1000 nM
Cc1ccc(NC(=O)N(C[C@H]2CCN2C(=O)OC(C)(C)C)c2ccccc2C(C)C)c(OC(F)F)n1 [Example 11, tert-butyl (R)-2-((3-(2-(difluoromethoxy)-6-methylpyridin-3-yl)-1-(2-isopropylphenyl)ureido)methyl)azetidine-1-carboxylate] | > 1000 nM
Cc1ccc(NC(=O)N(C[C@@H]2CCN2C(=O)OC(C)(C)C)c2ccccc2C(C)C)c(OC(F)F)n1 [Example 12, tert-butyl (S)-2-((3-(2-(difluoromethoxy)-6-methylpyridin-3-yl)-1-(2-isopropylphenyl)ureido)methyl)azetidine-1-carboxylate] | > 1000 nM
Cc1ccc(NC(=O)N(c2ccccc2C(C)C)C2CC2)c(OC(F)F)n1 [Example 13, 1-cyclopropyl-3-(2-(difluoromethoxy)-6-methylpyridin-3-yl)-1-(2-isopropylphenyl)urea] | > 1000 nM
Cc1ccc(NC(=O)N(c2ccccc2C(C)C)C2COC2)c(OC(F)F)n1 [Example 14, 3-(2-(difluoromethoxy)-6-methylpyridin-3-yl)-1-(2-isopropylphenyl)-1-(oxetan-3-yl)urea] | 10 to 100 nM
Cc1ccc(NC(=O)N(CC2COC2)c2ccccc2C(C)C)c(OC(F)F)n1 [Example 15, 3-(2-(difluoromethoxy)-6-methylpyridin-3-yl)-1-(2-isopropylphenyl)-1-(oxetan-3-ylmethyl)urea] | 10 to 100 nM
Cc1ccc(NC(=O)N(c2ccccc2C(C)C)[C@@H]2CCOC2)c(OC(F)F)n1 [Example 16, (R)-3-(2-(difluoromethoxy)-6-methylpyridin-3-yl)-1-(2-isopropylphenyl)-1-(tetrahydrofuran-3-yl)urea] | 10 to 100 nM
Cc1ccc(NC(=O)N(c2ccccc2C(C)C)[C@H]2CCOC2)c(OC(F)F)n1 [Example 17, (S)-3-(2-(difluoromethoxy)-6-methylpyridin-3-yl)-1-(2-isopropylphenyl)-1-(tetrahydrofuran-3-yl)urea] | 10 to 100 nM
Cc1ccc(NC(=O)N(c2ccccc2C(C)C)C2CCOCC2)c(OC(F)F)n1 [Example 18, 3-(2-(difluoromethoxy)-6-methylpyridin-3-yl)-1-(2-isopropylphenyl)-1-(tetrahydro-2H-pyran-4-yl)urea] | 10 to 100 nM
Cc1ccc(NC(=O)N(CC2CS(=O)(=O)C2)c2ccccc2C(C)C)c(OC(F)F)n1 [Example 19, 3-(2-(difluoromethoxy)-6-methylpyridin-3-yl)-1-((1,1-dioxidothietan-3-yl)methyl)-1-(2-isopropylphenyl)urea] | 100 to 1000 nM
Cc1ccc(NC(=O)N(c2ccccc2C(C)C)C2CCS(=O)(=O)CC2)c(OC(F)F)n1 [Example 20, 3-(2-(difluoromethoxy)-6-methylpyridin-3-yl)-1-(1,1-dioxidotetrahydro-2H-thiopyran-4-yl)-1-(2-isopropylphenyl)urea] | 10 to 100 nM
Cc1ccc(NC(=O)N(c2ccccc2C(C)C)C2CC3(C2)CS(=O)(=O)C3)c(OC(F)F)n1 [Example 21, 3-(2-(difluoromethoxy)-6-methylpyridin-3-yl)-1-(2,2-dioxido-2-thiaspiro[3.3]heptan-6-yl)-1-(2-isopropylphenyl)urea] | 100 to 1000 nM
Cc1ccc(NC(=O)N(c2ccccc2C(C)C)C2CN(C3COC3)C2)c(OC(F)F)n1 [Example 22, 3-(2-(difluoromethoxy)-6-methylpyridin-3-yl)-1-(2-isopropylphenyl)-1-(1-(oxetan-3-yl)azetidin-3-yl)urea] | 100 to 1000 nM
Cc1ccc(NC(=O)N(c2ccccc2C(C)C)[C@H]2C[C@H](OCc3ccccc3)C2)c(OC(F)F)n1 [Example 23, 1-((1r,3r)-3-(benzyloxy)cyclobutyl)-3-(2-(difluoromethoxy)-6-methylpyridin-3-yl)-1-(2-isopropylphenyl)urea] | 100 to 1000 nM
Cc1ccc(NC(=O)N(c2ccccc2C(C)C)[C@H]2C[C@@H](OCc3ccccc3)C2)c(OC(F)F)n1 [Example 24, 1-((1s,3s)-3-(benzyloxy)cyclobutyl)-3-(2-(difluoromethoxy)-6-methylpyridin-3-yl)-1-(2-isopropylphenyl)urea] | > 1000 nM
Cc1ccc(NC(=O)N(c2ccccc2C(C)C)[C@H]2C[C@H](C#N)C2)c(OC(F)F)n1 [Example 25, 1-((1r,3r)-3-cyanocyclobutyl)-3-(2-(difluoromethoxy)-6-methylpyridin-3-yl)-1-(2-isopropylphenyl)urea] | 100 to 1000 nM
Cc1ccc(NC(=O)N(c2ccccc2C(C)C)[C@H]2C[C@@H](C#N)C2)c(OC(F)F)n1 [Example 26, 1-((1s,3s)-3-cyanocyclobutyl)-3-(2-(difluoromethoxy)-6-methylpyridin-3-yl)-1-(2-isopropylphenyl)urea] | 100 to 1000 nM
Cc1ccc(NC(=O)N(c2ccccc2C(C)C)[C@H]2C[C@H](CC#N)C2)c(OC(F)F)n1 [Example 27, 1-((1r,3r)-3-(cyanomethyl)cyclobutyl)-3-(2-(difluoromethoxy)-6-methylpyridin-3-yl)-1-(2-isopropylphenyl)urea] | 100 to 1000 nM
Cc1ccc(NC(=O)N(c2ccccc2C(C)C)[C@H]2C[C@@H](CC#N)C2)c(OC(F)F)n1 [Example 28, 1-((1r,3s)-3-(cyanomethyl)cyclobutyl)-3-(2-(difluoromethoxy)-6-methylpyridin-3-yl)-1-(2-isopropylphenyl)urea] | 10 to 100 nM
Cc1ccc(NC(=O)N(c2ccccc2C(C)C)C2CNC(=O)C2)c(OC(F)F)n1 (stereo not shown) [Example 30, 3-(2-(difluoromethoxy)-6-methylpyridin-3-yl)-1-(2-isopropylphenyl)-1-(5-oxopyrrolidin-3-yl)urea] | 100 to 1000 nM

Same assay, conditions: LPAR1 IC50

SMILES | IC50
COc1ccc(NC(=O)N(c2ccccc2C(C)C)[C@@H]2CCN(C(C)=O)C[C@H]2F)c(OC(F)F)n1 (racemic) [Example 46, rac-1-((3R,4R)-1-acetyl-3-fluoropiperidin-4-yl)-3-(2-(difluoromethoxy)-6-methoxypyridin-3-yl)-1-(2-isopropylphenyl)urea] | 10 to 100 nM
COc1ccc(NC(=O)N(c2ccccc2C(C)C)[C@H]2CCN(C(C)=O)C[C@H]2F)c(OC(F)F)n1 (racemic) [Example 47, rac-1-((3R,4S)-1-acetyl-3-fluoropiperidin-4-yl)-3-(2-(difluoromethoxy)-6-methoxypyridin-3-yl)-1-(2-isopropylphenyl)urea] | 10 to 100 nM
Cc1ccc(NC(=O)N(c2ccccc2C(C)C)C2CCN(C(=O)OC(C)(C)C)CC2)c(OC(F)F)n1 [Example 1, tert-butyl 4-(3-(2-(difluoromethoxy)-6-methylpyridin-3-yl)-1-(2-isopropylphenyl)ureido)piperidine-1-carboxylate] | 100 to 1000 nM
Cc1ccc(NC(=O)N(c2ccccc2C(C)C)[C@H]2[C@@H]3CN(C(=O)OC(C)(C)C)C[C@@H]32)c(OC(F)F)n1 [Example 9, tert-butyl (1R,5S,6s)-6-(3-(2-(difluoromethoxy)-6-methylpyridin-3-yl)-1-(2-isopropylphenyl)ureido)-3-azabicyclo[3.1.0]hexane-3-carboxylate] | > 1000 nM
C=C(C)c1ccccc1N(C(=O)Nc1ccc(C)nc1OC(F)F)C1CCN(C(C)=O)CC1 [Example 29, 1-(1-acetylpiperidin-4-yl)-3-(2-(difluoromethoxy)-6-methylpyridin-3-yl)-1-(2-(prop-1-en-2-yl)phenyl)urea] | 10 to 100 nM
